This note sets out measurements from publication PMC9029618, “Attenuation of Scopolamine-Induced Amnesia via Cholinergic Modulation in Mice by Synthetic Curcumin Analogs” (Molecules, 2022).

In general, IC50 refers to the point on the concentration scale where inhibition reaches its midpoint.

In test [1] the test system is scopolamine-induced amnesic mice. The experiment in a line: Elevated plus maze (EPM), scopolamine-induced amnesia. The format is in vivo. As to conditions: scopolamine 1 mg/kg i.p. The source says:
Elevated plus maze paradigm is an important behavioral model for evaluation of anti-amnesic potentials in mice. This apparatus comprised of two open and two closed arms with dimensions of 16 cm × 5 cm × 12 cm and elevated 25 cm from the floor on a wooden stand. The EPM was designed in plus shape from two acrylic sheets having a central platform with dimensions of 5 cm × 5 cm. Initially, mice were placed in one of the open arms in such a way that it was directed away from the central platform. Then TLT was recorded after the mice moved to the closed arm, with their four legs from the open arm and then the mice were returned to their home cage. The time of exploration of the apparatus for each animal was 90 s. […] Reduction of TLT indicated memory-enhancing effect of the test samples. The inflexion ratio (IR) was calculated as: IR=L0−L1/L0 where L1 presents the initial transfer latency (s), and L0 is the retention transfer latency (s).

A further test deals with T1, BuChE (Equus caballus, UniProt P81908).
T1 construct: The enzymes AChE and BuChE were obtained from electric eel and equine serum, respectively; from tissue; host or cells: equine serum
T1 sequence (P81908 whole entry): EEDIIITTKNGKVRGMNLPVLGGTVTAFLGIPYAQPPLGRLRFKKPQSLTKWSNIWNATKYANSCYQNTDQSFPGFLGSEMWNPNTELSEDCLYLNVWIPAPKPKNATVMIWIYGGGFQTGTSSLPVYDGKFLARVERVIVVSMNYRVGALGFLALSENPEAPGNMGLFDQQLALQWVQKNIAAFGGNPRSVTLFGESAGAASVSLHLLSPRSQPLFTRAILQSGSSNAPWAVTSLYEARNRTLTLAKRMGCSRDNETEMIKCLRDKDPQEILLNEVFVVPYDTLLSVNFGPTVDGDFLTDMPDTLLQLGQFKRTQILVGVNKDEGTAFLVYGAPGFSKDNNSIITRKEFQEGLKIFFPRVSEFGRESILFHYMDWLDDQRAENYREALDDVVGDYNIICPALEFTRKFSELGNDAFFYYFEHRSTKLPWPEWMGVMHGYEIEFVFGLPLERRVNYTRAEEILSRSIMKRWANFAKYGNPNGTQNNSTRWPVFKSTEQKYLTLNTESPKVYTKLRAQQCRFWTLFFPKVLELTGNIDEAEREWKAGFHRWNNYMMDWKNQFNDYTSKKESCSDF
As to the kind of experiment: biochemical. The following applies: BuChE from equine serum, Ellman's method, n = 3; read-out: BuChEI (IC50 (nM)). The protocol: (§1) The in vitro cholinesterase assay of the synthesized curcumin analogs were carried out according to the Ellman’s method with slight modification. The enzymes AChE and BuChE were obtained from electric eel and equine serum, respectively. […] The final concentrations of AChE 0.03 U/mL and 0.01 U/mL of BuChE were achieved. […] The experiment was started by adding 5 µL enzyme solutions to cuvette, then 205 µL test sample and 5 µL DTNB reagents were added. Substrate solution (5 µL) was added, and the solution mixture was kept in a water bath for 15 min at 30 °C.

The next test addresses T2, AChE (Electrophorus electricus, UniProt O42275).
T2 construct: The enzymes AChE and BuChE were obtained from electric eel and equine serum, respectively; from tissue; host or cells: electric eel
As to the kind of experiment: biochemical. As to conditions: AChE from electric eel, Ellman's method, n = 3; read-out: AChEI (IC50 (nM)). The protocol:
as §1

In test [2] the test system is scopolamine-induced amnesic mice. As to the kind of experiment: Y-maze test, scopolamine-induced amnesia. The following applies: scopolamine 1 mg/kg i.p.
Protocol: A total of sixteen groups of mice, with six in each group, were used in the experiment. Vehicle treated group (Normal control group) were administered 10 mL/kg (p.o) of normal saline. […] Sample treatment groups were administered 7.5 mg/kg and 15 mg/kg (p.o) of synthesized compounds, respectively.
The dimensions of the arms were 15.5 cm high, 6 cm wide, 20 cm long and connected with each other with an angle of 120°. This test was conducted for a 5 min duration for each animal. The order and number of arm entries made by each animal after placing in one arm were recorded. Complete arm entry in any given arm was considered to be when the hind paws were completely inside, and the alternation was the consecutive arm entries into three different arms by each mouse. Ethanol 70% v/v solution was used to clean the Y-maze arena to avoid olfactory cues between each test. […] Mice were freely allowed to explore the objects when they were initially placed at the center of the apparatus. The formula was used to calculate the %SAP by recording the same arm returns (SAR), alternate arm returns (AAR) and the number of arm entries.
Test [3] deals with T3, AChE activity in the hippocampi of mice brains (Mus musculus, UniProt P21836).
T3 construct: from tissue; host or cells: mouse bilateral hippocampus homogenate, supernatant
T3 sequence (P21836 32-614): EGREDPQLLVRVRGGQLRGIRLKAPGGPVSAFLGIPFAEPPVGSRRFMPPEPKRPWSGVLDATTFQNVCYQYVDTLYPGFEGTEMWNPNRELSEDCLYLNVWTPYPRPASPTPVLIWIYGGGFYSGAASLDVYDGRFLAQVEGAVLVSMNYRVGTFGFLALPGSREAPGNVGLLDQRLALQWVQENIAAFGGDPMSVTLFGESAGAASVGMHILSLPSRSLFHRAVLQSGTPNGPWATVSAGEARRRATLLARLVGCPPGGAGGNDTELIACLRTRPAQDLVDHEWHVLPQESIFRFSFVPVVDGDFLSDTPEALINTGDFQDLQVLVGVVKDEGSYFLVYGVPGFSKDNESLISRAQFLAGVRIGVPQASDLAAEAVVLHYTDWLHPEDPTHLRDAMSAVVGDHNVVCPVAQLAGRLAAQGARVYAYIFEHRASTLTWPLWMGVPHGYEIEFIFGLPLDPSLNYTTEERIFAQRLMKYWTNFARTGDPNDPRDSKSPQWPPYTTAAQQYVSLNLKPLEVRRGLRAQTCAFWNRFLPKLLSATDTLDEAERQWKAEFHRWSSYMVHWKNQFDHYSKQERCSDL
The format is in vivo. The following applies: ex vivo, vs scopolamine treated group, n = 6. The protocol:
(§2) After the behavioral study, the mice were sacrificed by decapitation, providing a quick and painless death by cervical dislocation. The isolated brain of each animal in chilled phosphate buffer saline was subjected into biomarker assays using AChE and BuChE enzymes.
Mice were sacrificed within 24 h of the behavior study; brains were dissected and stored at −80 °C. […] Supernatant was used for the measurement of cholinesterase (AChE and BuChE) activity.
Acetylcholine/Acetyl cholinesterase assay Kit was used for the determination of AChE activity, according to the standard procedure. The assay was carried out using 96-well plate, and every reaction comprised of 100 µL sample, 200 µM Amplex Red reagent, 50 µM of acetylcholine, 1 U/mL horseradish peroxidase (HRP) and 0.1 U/mL choline oxidase in buffer solution. Incubation period for the reaction mixture was 20 min at room temperature in the dark. The fluorescence intensity at 560 nm excitation and 580 nm emission wavelength was measured.

Test [4] concerns scopolamine-induced amnesic mice. The experiment in a line: Novel object recognition test (NORT), scopolamine-induced amnesia. The format is in vivo. The method, then: In this study, the memory-enhancing potentials of synthesized compounds were determined using novel object recognition test mice model. Dimensions of the apparatus were 40 cm × 40 cm × 30 cm and designed from Plexiglass in a box shape. After acclimatization, the mice were habituated with the apparatus for 2–3 min one day before the test. Initially, in the sample phase, two identical objects were placed in the two corners of the apparatus and the mice were allowed to freely explore the apparatus. The objects in the apparatus were explored by each animal either by touching the objects or keeping their noses within 2 cm of them. […] Mice were allowed again to freely explore both the objects in a similar way as in sample phase, and the time spent by each animal exploring the novel and familiar object (F) was recorded.
The following formula was used for calculation of discrimination index. D1=N—F /N+F
D1 = discrimination index; N = novel object; F = familiar object

Test [5] deals with T4, BuChE activity in the hippocampi of mice brains (Mus musculus, UniProt Q03311).
T4 construct: from tissue; host or cells: mouse bilateral hippocampus homogenate, supernatant
T4 sequence (Q03311 30-603): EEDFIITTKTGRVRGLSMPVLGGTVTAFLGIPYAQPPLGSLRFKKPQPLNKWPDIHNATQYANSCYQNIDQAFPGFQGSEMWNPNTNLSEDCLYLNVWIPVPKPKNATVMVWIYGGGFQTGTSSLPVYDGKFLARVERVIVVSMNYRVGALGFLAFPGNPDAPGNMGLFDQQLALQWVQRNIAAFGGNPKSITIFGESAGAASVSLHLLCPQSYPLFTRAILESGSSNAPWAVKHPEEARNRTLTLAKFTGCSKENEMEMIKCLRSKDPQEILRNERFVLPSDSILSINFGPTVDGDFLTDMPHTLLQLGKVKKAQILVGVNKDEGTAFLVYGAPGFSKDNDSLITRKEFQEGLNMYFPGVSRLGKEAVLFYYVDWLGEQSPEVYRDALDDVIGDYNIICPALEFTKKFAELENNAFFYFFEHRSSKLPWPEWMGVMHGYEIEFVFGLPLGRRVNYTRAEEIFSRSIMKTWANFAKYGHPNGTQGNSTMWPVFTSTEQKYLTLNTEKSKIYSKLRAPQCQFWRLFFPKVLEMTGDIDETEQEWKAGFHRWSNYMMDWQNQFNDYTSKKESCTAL
The experiment in a line: Ex vivo BuChE activity in the brain hippocampus. The following applies: vs scopolamine treated group, n = 6. The protocol:
as §2
Mice were sacrificed within 24 h of the behavior study; brains were dissected and stored at −80 °C. The bilateral hippocampus was homogenized before the assay into volumes of 0.01 M phosphate buffer (2.7 mM KCl, 137 mM NaCl, 2 mM KH2PO4, 10 mM Na2HPO4) and centrifuged at 4 °C for 30 min at 12,000× g. Supernatant was used for the measurement of cholinesterase (AChE and BuChE) activity.
Butyrylcholinesterase (BuChE) activity of the synthesized compounds were measured according to Ellman method with slight modification. BuSCh was hydrolyzed by BuChE and choline iodide produced, which reacted with DNTB, and then the production of TNB. The TNB was quantitated by calorimetry that indicated the BuChE activity. BuChE assay was accomplished in 96-well plate and every reaction mixture contained 40 µL sample, 80 µL DTNB (0.25 mg/mL) and 70 µL BuSCh (7.5 mM). The absorbance was determined at 37 °C after incubation for 60 min.

T2 sequence (O42275 24-633): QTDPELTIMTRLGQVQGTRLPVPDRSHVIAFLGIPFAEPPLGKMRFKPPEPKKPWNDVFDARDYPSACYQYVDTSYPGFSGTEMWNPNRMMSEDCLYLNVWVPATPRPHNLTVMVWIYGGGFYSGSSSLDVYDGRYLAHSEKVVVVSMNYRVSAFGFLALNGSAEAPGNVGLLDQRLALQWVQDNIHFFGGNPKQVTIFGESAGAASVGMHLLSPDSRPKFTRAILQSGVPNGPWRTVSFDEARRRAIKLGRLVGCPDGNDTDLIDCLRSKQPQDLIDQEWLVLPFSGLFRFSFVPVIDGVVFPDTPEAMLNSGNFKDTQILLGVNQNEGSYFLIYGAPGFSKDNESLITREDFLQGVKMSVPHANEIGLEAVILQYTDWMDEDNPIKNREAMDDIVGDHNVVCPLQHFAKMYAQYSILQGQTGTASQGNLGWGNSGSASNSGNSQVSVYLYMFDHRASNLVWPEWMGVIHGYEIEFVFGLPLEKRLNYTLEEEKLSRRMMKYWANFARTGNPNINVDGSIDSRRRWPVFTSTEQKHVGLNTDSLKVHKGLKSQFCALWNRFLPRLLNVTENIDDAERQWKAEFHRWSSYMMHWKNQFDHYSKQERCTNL

Consider `O=C(/C=C/c1ccc(Cl)cc1)CC(=O)/C=C/c1ccc(Cl)cc1` [Compound 1d, (1E,6E)-1,7-bis(4-chlorophenyl)hepta-1,6-diene-3,5-dione], for which the “effect on TLT vs amnesic group” value in test [1] (7.5 mg/kg p.o. 7 days) and in test [1] (15 mg/kg p.o. 7 days) was “significantly reduced TLT” each time. Besides, the half-maximal inhibitory concentration (IC50) was found to be 378 nM at BuChE and 113 nM at AChE. Moreover, the “% spontaneous alternation performance (% SAP)” value in test [2] (7.5 mg/kg p.o. 7 days) is 55.66 ± 2.82%; in test [2] (15 mg/kg p.o. 7 days), 67.66 ± 2.84%. For the same compound, in test [3], the “effect on scopolamine-increased AChE activity in hippocampus” value is reported as “markedly reduced the increased activity of AChE”. The “discrimination index (DI)” value in test [4] (long-term memory (after 24 h), 7.5 mg/kg) was 63.78%; in test [4] (long-term memory (after 24 h), 15 mg/kg), 64.61%; in test [4] (short-term memory, 7.5 mg/kg), 61.43%; in test [4] (short-term memory, 15 mg/kg) it was 62.03%. Moreover, in test [5], the “effect on scopolamine-increased BuChE activity in hippocampus” value is recorded as “decreased the increased BuChE activity”.
